The subject of experiment [1] is Phytophthora infestans. As to conditions: n = 10.
For experiment [2], the system named is Puccinia sorghi. The experiment is classed as cell-based. As to conditions: 25 ppm.
A further experiment has as its system Puccinia triticina. As to the kind of experiment: In planta validation in wheat infected with leaf rust, growth chamber. As to conditions: sprayed a day before inoculation. The experiment is classed as in vivo, Puccinia triticina on wheat.
For the next experiment, the system named is Pythium aphanidermatum. The experiment is classed as cell-based.
A further experiment relates to Rhizoctonia solani. The experiment is classed as cell-based.
For experiment [3], the system named is Puccinia sorghi. As to the kind of experiment: In planta validation: Puccinia sorghi infection of corn seedlings. The class given is in vivo, Puccinia sorghi on corn. As to conditions: controlled growth conditions, growth rooms, spraying.
Description: • 1) Use: 120×80×80 mm pots, standard garden soil with fertilizer and corn seeds of a rust sensitive variety. • 2) Put pots in a tray and fill the pots with the soil to the top. • 3) Make a small grove for the seeds. • 4) Plant about 10 seeds of corn in each pot. • 5) Cover the seeds with additional soil. • 6) Add water into the tray—about 100 ml for each pot (fill the tray 3 times). • 7) Grow the corn for 8 days in growth room at 22° C. (until the second leaf is emerged). B. Preparation of Spore Suspension [from Corn Leaves] for Inoculation • 1) Insert 20 infected corn leaves with spores into a sterile 50-ml tube. • 2) Add 50 ml of cold 0.05% Tween® 20 solution. • 3) Insert the tube into a sealed, ice cold plastic box. • 4) Shake the box using a shaker for 15 min at 3000 RPM. • 5) Transfer the suspension (without the leaves) into a clean sterile 50-ml tube. • 6) Filter the spore suspension through 16 layers of gauze into another sterile 50-ml tube. • 7) Keep the tube with the spore suspension on ice. • 8) Wash and concentrate the spores on a 5-micron membrane filter. Wash 4 times with ice-cold sterile water and collect the spores in 0.05% Tween® 20 solution. • 9) For inoculation, dilute the spore suspension to get spore concentration of 8000 spores/ml using cold 0.05% Tween® 20 solution. […]
A further experiment deals with Pseudomonas syringae. The class given is cell-based.
Experiment [4] relates to Phytophthora infestans. The experiment is classed as cell-based. As to conditions: Phytophthora infestans on tomato leaf discs; activity grade x repeats/12 x100.

Results on three compounds are retold here after patent US20230098202A1 (priority 2020, published 2023).

Read-outs that look alike come from different tables or passages of the source.

Consider `CN[C@H]1CCC(c2ccc(Cl)c(Cl)c2)c2ccccc21.Cl` (stereo in doubt) [Compound 3, (1S,4R)-4-(3,4-dichlorophenyl)-N-methyl-1,2,3,4-tetrahydronaphthalen-1-aminium chloride], for which the “Mean leaf surface area (0-3) covered by Phytophthora” value with Phytophthora infestans [1] (Exp. 487, 200 ppm in 0.1% base (pH = 6) + Silwet 0.005%, not treated 2.6) turned out to be 0.7; in the experiment with Phytophthora infestans [1] (Exp. 487, 200 ppm in DMSO 6% + Silwet 0.005%, 0=clear, 3=high coverage, not treated 2.6), 0.1; in the experiment on Phytophthora infestans [1] (Exp. 492, 200 ppm in 0.1% base (pH = 6) + Silwet 0.005%, not treated 3), 0.3; in the experiment on Phytophthora infestans [1] (Exp. 492, 200 ppm in DMSO 6% + Silwet 0.005%, not treated 3), 0.4; in the experiment on Phytophthora infestans [1] (Exp. 500, 200 ppm in 0.1% base (pH = 6) without Silwet, not treated 3) it was 0.8.

For the compound `C[C@H]1[C@H](c2ccc(O)c(O)c2)c2cc(O)c(O)cc2C[C@H]1C` [Compound 1, (5R,6R,7R)-5-(3,4-dihydroxyphenyl)-6,7-dimethyl-5,6,7,8-tetrahydronaphthalene-2,3-diol], the “Relative Activity value (%)” value in the experiment on Puccinia sorghi [2] worked out at 50%; with Pythium aphanidermatum, 100%; in the experiment with Rhizoctonia solani it was 50%; in the experiment with Pseudomonas syringae, 14%; in the experiment with Phytophthora infestans [4], 25%. Besides, the “average efficacy in preventing and controlling Puccinia triticina” value amounted to 95.17% in the experiment on Puccinia triticina (200 ppm) and 97.06% in the experiment on Puccinia triticina (400 ppm). In the experiment with Puccinia sorghi [3], the “efficacy in preventing and controlling Puccinia sorghi in corn plants (in words)” value is recorded as “very good efficacy”.

With `COc1cc2c(cc1O)[C@@H](c1ccc(O)c(O)c1)[C@H](C)[C@H](C)C2` [Compound 2, 4-((1R,2R,3R)-7-hydroxy-6-methoxy-2,3-dimethyl-1,2,3,4-tetrahydronaphthalen-1-yl)benzene-1,2-diol], the “Relative Activity value (%)” value with Puccinia sorghi [2] was 50%; in the experiment on Pythium aphanidermatum, 20%; in the experiment with Rhizoctonia solani it was 14%; in the experiment on Pseudomonas syringae, 14%.
